Results: patent US20260226065A1, “SUBSTITUTED BENZENE COMPOUND” (DAIICHI SANKYO COMPANY, LIMITED, priority 2023, published 2026)

target: T1, NLRP3 inflammasome (Homo sapiens, UniProt Q96P20); assay: In vitro IL-1β production test (PMA-differentiated THP-1 cells, Nigericin stimulation, AlphaLISA); assay type: cell-based; details: inhibition of IL-1β production; THP-1 cells differentiated with 200 nM PMA; 0.015 mM Nigericin; 2 hours
T1 construct: endogenous in cells; host or cells: THP-1 (human monocyte-derived), PMA-differentiated, Nigericin-stimulated
T1 sequence (Q96P20 whole entry): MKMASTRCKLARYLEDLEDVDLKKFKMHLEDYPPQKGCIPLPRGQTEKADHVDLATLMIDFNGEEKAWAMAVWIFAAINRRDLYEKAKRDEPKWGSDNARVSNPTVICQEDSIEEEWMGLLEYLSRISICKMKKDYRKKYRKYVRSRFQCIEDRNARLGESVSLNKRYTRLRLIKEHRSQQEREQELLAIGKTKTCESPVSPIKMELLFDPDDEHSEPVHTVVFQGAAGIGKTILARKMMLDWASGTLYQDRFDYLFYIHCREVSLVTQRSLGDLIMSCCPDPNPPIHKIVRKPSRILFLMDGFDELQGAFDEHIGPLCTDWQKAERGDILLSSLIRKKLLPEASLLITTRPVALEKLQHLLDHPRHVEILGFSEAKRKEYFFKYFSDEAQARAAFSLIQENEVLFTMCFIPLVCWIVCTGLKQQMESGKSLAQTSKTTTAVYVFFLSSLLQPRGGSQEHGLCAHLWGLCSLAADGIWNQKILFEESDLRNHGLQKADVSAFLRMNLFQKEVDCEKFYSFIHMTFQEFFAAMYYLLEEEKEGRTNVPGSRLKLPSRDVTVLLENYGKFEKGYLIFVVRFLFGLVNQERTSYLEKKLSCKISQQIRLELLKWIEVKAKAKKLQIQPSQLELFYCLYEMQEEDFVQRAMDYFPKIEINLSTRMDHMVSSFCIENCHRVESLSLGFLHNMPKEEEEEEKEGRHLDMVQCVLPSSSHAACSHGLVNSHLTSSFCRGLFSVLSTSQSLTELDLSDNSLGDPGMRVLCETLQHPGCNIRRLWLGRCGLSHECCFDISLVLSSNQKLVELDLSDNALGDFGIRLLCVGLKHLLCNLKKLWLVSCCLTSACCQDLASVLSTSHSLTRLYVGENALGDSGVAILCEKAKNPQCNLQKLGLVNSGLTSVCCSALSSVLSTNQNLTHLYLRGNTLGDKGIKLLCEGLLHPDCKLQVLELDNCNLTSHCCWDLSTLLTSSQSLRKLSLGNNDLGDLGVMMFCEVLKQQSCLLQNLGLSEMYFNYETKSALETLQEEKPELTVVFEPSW
Description: Human monocyte-derived THP-1 cells were cultured for one day in 10% bovine serum-containing RPMI-1640 medium (Thermo #A10491-01) supplemented with 200 nM phorbol 12-myristate 13-acetate (PMA, Sigma #P8139) to induce differentiation.
NLRP3 inflammasome was induced by replacing the culture medium with bovine serum-free RPMI-1640 medium supplemented with 0.015 mM Nigericin (Sigma #SML1779) and the test compound of known concentrations.
After 2 hours, the culture medium supernatant was collected and the IL-1β protein concentration was measured using the AlphaLISA (registered trademark) assay (PerkinElmer #AL220C).
The IL-1β concentration without the addition of the test compound and with Nigericin stimulation was set as 0% inhibitory activity, and the IL-1β concentration without Nigericin stimulation was set as 100% inhibitory activity, and the inhibition rate (% inhibition) of the test compound at each added concentration was calculated.
The % inhibition value was subjected to sigmoid fitting using a logistic regression model to calculate the 50% inhibitory concentration (IC50 value).

In order of falling IC50:
1. Cc1cc(C(F)(F)F)cc(O)c1-c1cc2c(nn1)N([C@@H]1CCCN(C)C1)CCC2 [Example 36, 3-methyl-2-{8-[(3R)-1-methylpiperidin-3-yl]-5,6,7,8-tetrahydropyrido[2,3-c]pyridazin-3-yl}-5-(trifluoromethyl)phenol]  42.1 nM
2. COc1cn(C23CCCC(O)(C2)C3)c2nnc(-c3c(C)cc(C(F)(F)F)cc3O)cc12 [Example 24, 5-{3-[2-hydroxy-6-methyl-4-(trifluoromethyl)phenyl]-5-methoxy-7H-pyrrolo[2,3-c]pyridazin-7-yl}bicyclo[3.1.1]heptan-1-ol]  34.8 nM
3. Cc1cc(C(F)(F)F)cc(O)c1-c1cc2ncn([C@@H]3CCCN(C)C3)c2nn1 [Example 32, 3-methyl-2-{7-[(3R)-1-methylpiperidin-3-yl]-7H-imidazo[4,5-c]pyridazin-3-yl}-5-(trifluoromethyl)phenol]  30.6 nM
4. Cc1cc(C(F)(F)F)cc(O)c1-c1cc2c(nn1)N([C@@H]1CCCN(C)C1)CCN2C [Example 35, 3-methyl-2-{5-methyl-8-[(3R)-1-methylpiperidin-3-yl]-5,6,7,8-tetrahydropyrazino[2,3-c]pyridazin-3-yl}-5-(trifluoromethyl)phenol]  25.6 nM
5. Cc1cc(Cl)cc(O)c1-c1cc2c(OC(F)F)cn([C@H]3C[C@@](C)(O)C3)c2nn1 [Example 29, 5-chloro-2-{5-(difluoromethoxy)-7-[(1s,3s)-3-hydroxy-3-methylcyclobutyl]-7H-pyrrolo[2,3-c]pyridazin-3-yl}-3-methylphenol]  12.4 nM
6. COc1cn([C@H]2C[C@@](C)(O)C2)c2nnc(-c3c(C)cc(Cl)cc3O)cc12 [Example 28, 5-chloro-2-{7-[(1s,3s)-3-hydroxy-3-methylcyclobutyl]-5-methoxy-7H-pyrrolo[2,3-c]pyridazin-3-yl}-3-methylphenol]  12 nM
7. CCN1CCC[C@@H](N2CCc3cc(-c4c(C)cc(OC(F)(F)F)cc4O)nnc32)C1 [Example 23, 2-{7-[(3R)-1-ethylpiperidin-3-yl]-6,7-dihydro-5H-pyrrolo[2,3-c]pyridazin-3-yl}-3-methyl-5-(trifluoromethoxy) phenol]  11.8 nM
8. CCN1CCC[C@@H](N2CCc3cc(-c4c(C)cc(OC(F)F)cc4O)nnc32)C1 [Example 22, 5-(difluoromethoxy)-2-{7-[(3R)-1-ethylpiperidin-3-yl]-6,7-dihydro-5H-pyrrolo[2,3-c]pyridazin-3-yl}-3-methylphenol]  10.5 nM
9. Cc1cc(C(F)(F)F)cc(O)c1-c1cc2c(C#N)cn(C34CCCC(O)(C3)C4)c2nn1 [Example 16, 7-(5-hydroxybicyclo[3.1.1]heptan-1-yl)-3-[2-hydroxy-6-methyl-4-(trifluoromethyl)phenyl]-7H-pyrrolo[2,3-c]pyridazine-5-carbonitrile]  8.6 nM
10. CCN1CCC[C@@H](n2cc(C)c3cc(-c4c(C)cc(C(F)(F)F)cc4O)nnc32)C1 [Example 20, 2-{7-[(3R)-1-ethylpiperidin-3-yl]-5-methyl-7H-pyrrolo[2,3-c]pyridazin-3-yl}-3-methyl-5-(trifluoromethyl)phenol]  8.19 nM
11. Cc1cc(C(F)(F)F)cc(O)c1-c1cc2c(nn1)N([C@@H]1CCCN(C3CC3)C1)CC2 [Example 18, 2-{7-[(3R)-1-cyclopropylpiperidin-3-yl]-6,7-dihydro-5H-pyrrolo[2,3-c]pyridazin-3-yl}-3-methyl-5-(trifluoromethyl)phenol]  6.65 nM
12. CCN1CCC[C@@H](N2CCc3cc(-c4c(C)cc(Cl)cc4O)nnc32)C1 [Example 26, 5-chloro-2-{7-[(3R)-1-ethylpiperidin-3-yl]-6,7-dihydro-5H-pyrrolo[2,3-c]pyridazin-3-yl}-3-methylphenol]  6.18 nM
13. Cc1cc(C(F)(F)F)cc(O)c1-c1cc2c(nn1)N([C@@H]1CCCN(C(C)C)C1)CC2 [Example 15, 3-methyl-2-{7-[(3R)-1-(propan-2-yl)piperidin-3-yl]-6,7-dihydro-5H-pyrrolo[2,3-c]pyridazin-3-yl}-5-(trifluoromethyl)phenol]  4.86 nM
